The text below walks through data of US9006241B2, “Pyrimidine derivatives” (Noviga Research AB, priority 2011, dated 2015).

What all share (format): cell-based
For experiment [1], the system named is 8226/Dox40 (doxorubicin-resistant myeloma). Kind of experiment: FMCA, 8226/Dox40. The settings on record: 8226/Dox40 doxorubicin-resistant myeloma cells. An excerpt: (§1) The Fluorometric Microculture Cytotoxicity Assay, FMCA (Larsson, R., et al.; Anticancer Res, 1989, 9, 1111-1119), is a three day non-clonogenic microplate-based cell viability assay used for measurement of the cytotoxic and/or cytostatic effect of compounds in vitro (Lindhagen, E. et al.; Nat. Protoc., 2008, 3, 1364-1369). FMCA represents a valuable method to measure cytotoxicity in a number of cell types, both cell lines and primary cells from patients (Larsson, R., et al.; Int. J. Cancer, 1992, 50, 177-185; Fridborg, H., et al.; Eur. J. Cancer, 1999. 35, 424-432; Dhar, S., et al.; Br. J. Cancer, 1996, 74, 888-896).
(§2) FMCA is based on the principle that fluorescein diacetate (FDA) is converted to the fluorescent probe fluorescein by esterases in the plasma membranes of living cells. For experiments, 96 or 384-well microplates are prepared with compounds and stored at −70° C. until use. Cells are then seeded into the drug-prepared plates and placed in an incubator for 72 h. On the last day of incubation, the plates are washed and a buffer containing FDA is added and incubated with the cells for 45 minutes. Finally the fluorescence per well is measured in a fluorometer and a Survival Index % (SI) for each compound-treated well is calculated with the equation: Compound-treated cells minus blank divided by control cells minus blank. A high SI-value indicates a large percentage of living cells and vice versa.
(§3) For dose-response experiments, 384-well plates were prepared as follows:
(§4) Compounds of the invention as well comparative kinase inhibitors sorafenib sunitinib, dasatinib, pazopanib and a reference compound disclosed in WO 2009/071535 (compound #107) were diluted with PBS to a concentration ten-times higher than the desired starting concentration. Then, a Biomek 2000 liquid handling system was employed to serially dilute the compounds in a deep-well 384-well plate. From this plate, assay plates containing 5 μl compound per well were prepared with the Biomek 2000. Certain compounds precipitated when diluted with PBS, and these compounds were therefore prepared in a 96-well plate manually as described above using culture medium RPMI 1640 instead of PBS.
(§5) The compounds were also tested at five concentrations, with five times serial dilution on the following cell types: CCRF-CEM, hTERT-RPE1 (normal retinal epithelial cells), hRPTEpiC (normal renal cells), and peripheral blood mononuclear cells (PBMC). Each experiment was performed three times, except for PBMC and hRPTEpiC, which were performed twice. SI-values were calculated, graphs were plotted using GraphPadPrism 5.0 (GraphPad Software Inc. La Jolla, Calif.) and IC50-values for each cell type and compound were determined from the curves.
(§6) The compounds of the invention were also tested on further cancer cell lines related to breast cancer (MDA-MB-231; see e.g. Cailleau, R., et al.; J. Natl. Cancer Inst., 1974, 53, 661-674), teniposide-resistant leukemia (CEM/VM1 see e.g. Danks, M., et al.; Cancer Res., 1987, 47, 1297-1301), leukemia (HL-60; see e.g. Collins, S., et al.; Nature, 1977, 270, 347-349), doxorubicin-resistant lung cancer (H69AR; see e.g. Mirski, S., et al.; Cancer Res., 1987, 47, 2594-2598), myeloma (RPMI 8226; see e.g. Matsuoka, Y., et al.; Proc. Soc. Exp. Biol. Med., 1967, 125, 1246-1250), doxorubicin-resistant myeloma (8226/Dox40; see e.g. Dalton, W., et al.; Blood, 1989, 15, 747-752), lymphoma (U-937, see e.g. Sundström, C., et al.; Int. J. Cancer, 1976, 17, 565-577), vincristin-resistant lymphoma (U-937-vcr; see e.g. Botling, J., et al.; Int. J. Cancer, 1994, 58, 269-274), ovarian cancer (A2780; see e.g. Hamilton, T., et al.; Semin. Oncol., 1984, 11, 285-298), doxorubicin-resistant ovarian cancer (A2780/Adr), cisplatin-resistant ovarian cancer (A2780/Cis; see e.g. Behrens, B., et al. Cancer Res. 1987, 47, 414-418), pancreatic cancer (PANC-1, BxPC-3, and MIA PaCa-2; see e.g. Lieber, M., et al.; Int. J. Cancer, 1975, 15, 741-747; Loor, R., et al.; Clin. Lab. […]

The test system of experiment [2] is CEM/VM1 (teniposide-resistant leukemia). Kind of experiment: FMCA, CEM/VM1. The note with it: Homo sapiens, CEM/VM1 teniposide-resistant leukemia cells.
From the text: as §1, §2, §3, §4, §5, §6

Another experiment deals with A2780 (ovarian cancer). Kind of experiment: FMCA, A2780. The settings on record: Homo sapiens, A2780 ovarian cancer cells.
From the text: as §1, §2, §3, §4, §5, §6

The test system of experiment [3] is U-937-vcr (vincristin-resistant lymphoma). The experiment can be described thus: FMCA, U-937-vcr. The note with it: U-937-vcr vincristin-resistant lymphoma cells.
From the text: as §1, §2, §3, §4, §5, §6

For experiment [4], the system named is A2780/Adr (doxorubicin-resistant ovarian cancer). The experiment can be described thus: FMCA, A2780/Adr. The settings on record: A2780/Adr doxorubicin-resistant ovarian cancer cells.
From the text: as §1, §2, §3, §4, §5, §6

Another experiment deals with U-937 (lymphoma). Kind of experiment: FMCA, U-937. The settings on record: Homo sapiens, U-937 lymphoma cells.
From the text: as §1, §2, §3, §4, §5, §6

Experiment [5] has as its system A2780/Cis (cisplatin-resistant ovarian cancer). Kind of experiment: FMCA, A2780/Cis. The settings on record: A2780cis, A2780/Cis cisplatin-resistant ovarian cancer cells.
From the text: as §1, §2, §3, §4, §5, §6

A further experiment has as its system RPMI 8226 (myeloma). The experiment can be described thus: FMCA, RPMI 8226. The settings on record: Homo sapiens, RPMI 8226 myeloma cells.
From the text: as §1, §2, §3, §4, §5, §6

Experiment [6] relates to H69AR (doxorubicin-resistant lung cancer). The experiment can be described thus: FMCA, H69AR. The note with it: Homo sapiens, H69AR doxorubicin-resistant lung cancer cells.
From the text: as §1, §2, §3, §4, §5, §6

Experiment [7] concerns CCRF-CEM cancer cells - leukemia. The experiment can be described thus: Fluorometric Microculture Cytotoxicity Assay (FMCA), CCRF-CEM. The settings on record: Homo sapiens, 72 h incubation.
From the text: as §1, §2
In subsequent experiments, compounds were tested, along with a number of approved cancer drugs (dasatinib, pazopanib, sorafenib, and sunitinib) as described above. Initially, the acute lymphoblastic leukemia cell line CCRF-CEM was used throughout. In the assay plates, medium was added to six empty wells (blank wells) and wells were filled with PBS and cell suspension and served as control wells. SI-values were then calculated for each compound-treated well as described above. All experiments were conducted twice and a new batch of plates was prepared for each experiment.
as §3, §4, §5

As a reminder, the EC50 is the concentration giving half of the maximal effect. Read a low EC50 as greater potency.

Regarding `COc1ccc2[nH]cc(CCNc3nccc(Nc4ccc5[nH]c(C)c(C)c5c4)n3)c2c1` [Example 14, N^4-(2,3-dimethyl-1H-indol-5-yl)-N^2-[2-(5-methoxy-1H-indol-3-yl)ethyl]pyrimidine-2,4-diamine], the EC50 came to 280 nM in experiment [1]; 51 nM in experiment [2]; 110 nM in the experiment on A2780 (ovarian cancer); 44 nM in experiment [3]; 440 nM in experiment [4]; 73 nM with U-937 (lymphoma). The concentration giving a half-maximal response (EC50) in experiment [5] came to 63 nM; in the experiment with RPMI 8226 (myeloma), 210 nM; in experiment [6], 200 nM; in [7], 21 nM.
